Data reported in PubChem BioAssay (NCI).
“And” between values parts separate entries of the source, which are not always exact repeats. Equal values may be shown once.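 Five concentrations, 48 hours, 96-well plates. Abbreviation: GI50, concentration required for 50% inhibition of growth. Definition used: TGI = concentration required for complete inhibition of growth.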

Columns and labels:
Experiment in all cases: inhibition of tumour cell growth, NCI panel, 48 h
786-0 renal = test system: 786-0 renal
A549 NSCLC = test system: A549 NSCLC
ACHN renal = test system: ACHN renal
BT-549 breast = test system: BT-549 breast
CCRF-CEM leukemia = test system: CCRF-CEM leukemia
COLO 205 colon = test system: COLO 205 colon
DU-145 prostate = test system: DU-145 prostate
EKVX NSCLC = test system: EKVX NSCLC
HCT-116 colon = test system: HCT-116 colon
HCT-15 colon = test system: HCT-15 colon
HL-60(TB) leukemia = test system: HL-60(TB) leukemia
HOP-62 NSCLC = test system: HOP-62 NSCLC
HOP-92 NSCLC = test system: HOP-92 NSCLC
HS 578T breast = test system: HS 578T breast
HT29 colon = test system: HT29 colon
IGROV1 ovarian = test system: IGROV1 ovarian
K-562 leukemia = test system: K-562 leukemia
LOX IMVI melanoma = test system: LOX IMVI melanoma
M14 melanoma = test system: M14 melanoma
MALME-3M melanoma = test system: MALME-3M melanoma
MDA-MB-231 breast = test system: MDA-MB-231 breast
MDA-N = test system: MDA-N
MOLT-4 leukemia = test system: MOLT-4 leukemia
NCI-H226 lung = test system: NCI-H226 lung
NCI-H23 lung = test system: NCI-H23 lung
NCI-H460 lung = test system: NCI-H460 lung
NCI-H522 lung = test system: NCI-H522 lung
NCI/ADR-RES ovarian = test system: NCI/ADR-RES ovarian
OVCAR-3 ovarian = test system: OVCAR-3 ovarian
OVCAR-5 ovarian = test system: OVCAR-5 ovarian
OVCAR-8 ovarian = test system: OVCAR-8 ovarian
PC-3 prostate = test system: PC-3 prostate
RXF 393 renal = test system: RXF 393 renal
SF-268 CNS = test system: SF-268 CNS
SF-295 CNS = test system: SF-295 CNS
SF-539 CNS = test system: SF-539 CNS
SK-MEL-2 melanoma = test system: SK-MEL-2 melanoma
SK-MEL-28 melanoma = test system: SK-MEL-28 melanoma
SK-MEL-5 melanoma = test system: SK-MEL-5 melanoma
SK-OV-3 ovarian = test system: SK-OV-3 ovarian
SN12C renal = test system: SN12C renal
SNB-19 CNS = test system: SNB-19 CNS
SNB-75 CNS = test system: SNB-75 CNS
SW-620 colon = test system: SW-620 colon
T-47D breast = test system: T-47D breast
TK-10 renal = test system: TK-10 renal
U251 CNS = test system: U251 CNS
UACC-257 melanoma = test system: UACC-257 melanoma
UACC-62 melanoma = test system: UACC-62 melanoma
UO-31 renal = test system: UO-31 renal
A498 renal = test system: A498 renal
CAKI-1 renal = test system: CAKI-1 renal
KM12 colon = test system: KM12 colon
MCF7 breast = test system: MCF7 breast
MDA-MB-435 = test system: MDA-MB-435
OVCAR-4 ovarian = test system: OVCAR-4 ovarian

CCOP(=O)(O)CC1OC(CO)C(O)C1O (centres undefined)
TGI (786-0 renal): > 100 µM
TGI (A549 NSCLC): > 100 µM
TGI (ACHN renal): > 100 µM
TGI (BT-549 breast): > 100 µM
TGI (CCRF-CEM leukemia): > 100 µM
TGI (COLO 205 colon): > 100 µM
TGI (DU-145 prostate): > 100 µM
TGI (EKVX NSCLC): > 100 µM
TGI (HCT-116 colon): > 100 µM
TGI (HCT-15 colon): > 100 µM
GI50 (HL-60(TB) leukemia): 30.1 µM and > 100 µM
TGI (HL-60(TB) leukemia): > 100 µM
TGI (HOP-62 NSCLC): > 100 µM
TGI (HOP-92 NSCLC): > 100 µM
TGI (HS 578T breast): > 100 µM
TGI (HT29 colon): > 100 µM
TGI (IGROV1 ovarian): > 100 µM
TGI (K-562 leukemia): > 100 µM
TGI (LOX IMVI melanoma): > 100 µM
TGI (M14 melanoma): > 100 µM
TGI (MALME-3M melanoma): > 100 µM
TGI (MDA-MB-231 breast): > 100 µM
TGI (MDA-N): > 100 µM
TGI (MOLT-4 leukemia): > 100 µM
TGI (NCI-H226 lung): > 100 µM
TGI (NCI-H23 lung): > 100 µM
TGI (NCI-H460 lung): > 100 µM
TGI (NCI-H522 lung): > 100 µM
TGI (NCI/ADR-RES ovarian): > 100 µM
TGI (OVCAR-3 ovarian): > 100 µM
TGI (OVCAR-5 ovarian): > 100 µM
TGI (OVCAR-8 ovarian): > 100 µM
TGI (PC-3 prostate): > 100 µM
TGI (RXF 393 renal): > 100 µM
TGI (SF-268 CNS): > 100 µM
TGI (SF-295 CNS): > 100 µM
TGI (SF-539 CNS): > 100 µM
TGI (SK-MEL-2 melanoma): > 100 µM
TGI (SK-MEL-28 melanoma): > 100 µM
TGI (SK-MEL-5 melanoma): > 100 µM
TGI (SK-OV-3 ovarian): > 100 µM
TGI (SN12C renal): > 100 µM
TGI (SNB-19 CNS): > 100 µM
TGI (SNB-75 CNS): > 100 µM
TGI (SW-620 colon): > 100 µM
TGI (T-47D breast): > 100 µM
TGI (TK-10 renal): > 100 µM
TGI (U251 CNS): > 100 µM
TGI (UACC-257 melanoma): > 100 µM
TGI (UACC-62 melanoma): > 100 µM
TGI (UO-31 renal): > 100 µM

CCn1c2ccccc2c2cc(N=Nc3ccc(C#N)cc3)ccc21
TGI (786-0 renal): > 100 µM
TGI (A498 renal): 70 µM
TGI (A549 NSCLC): > 100 µM
TGI (ACHN renal): > 100 µM
TGI (BT-549 breast): 57.1 µM
TGI (CAKI-1 renal): > 100 µM
TGI (CCRF-CEM leukemia): > 100 µM
TGI (COLO 205 colon): > 100 µM
TGI (DU-145 prostate): > 100 µM
TGI (EKVX NSCLC): > 100 µM
TGI (HCT-116 colon): > 100 µM
TGI (HCT-15 colon): > 100 µM
TGI (HL-60(TB) leukemia): > 100 µM
TGI (HOP-62 NSCLC): > 100 µM
TGI (HOP-92 NSCLC): 79.7 µM
TGI (HS 578T breast): > 100 µM
TGI (HT29 colon): > 100 µM
TGI (IGROV1 ovarian): > 100 µM
TGI (KM12 colon): > 100 µM
TGI (LOX IMVI melanoma): 61.8 µM
TGI (M14 melanoma): > 100 µM
TGI (MALME-3M melanoma): 52.7 µM
TGI (MCF7 breast): > 100 µM
TGI (MDA-MB-231 breast): 59 µM
TGI (MDA-MB-435): > 100 µM
TGI (MDA-N): > 100 µM
TGI (MOLT-4 leukemia): > 100 µM
TGI (NCI-H226 lung): > 100 µM
TGI (NCI-H23 lung): 68.6 µM
TGI (NCI-H460 lung): > 100 µM
TGI (NCI-H522 lung): > 100 µM
TGI (OVCAR-3 ovarian): > 100 µM
TGI (OVCAR-4 ovarian): > 100 µM
TGI (OVCAR-5 ovarian): > 100 µM
TGI (OVCAR-8 ovarian): > 100 µM
TGI (PC-3 prostate): > 100 µM
TGI (SF-268 CNS): > 100 µM
TGI (SF-295 CNS): > 100 µM
TGI (SF-539 CNS): > 100 µM
TGI (SK-MEL-2 melanoma): > 100 µM
TGI (SK-MEL-28 melanoma): > 100 µM
TGI (SK-MEL-5 melanoma): > 100 µM
TGI (SK-OV-3 ovarian): > 100 µM
TGI (SN12C renal): > 100 µM
TGI (SNB-19 CNS): 71.6 µM
TGI (SNB-75 CNS): 87.6 µM
TGI (SW-620 colon): > 100 µM
TGI (T-47D breast): > 100 µM
TGI (TK-10 renal): > 100 µM
TGI (U251 CNS): > 100 µM
TGI (UACC-257 melanoma): > 100 µM
TGI (UACC-62 melanoma): > 100 µM
TGI (UO-31 renal): > 100 µM
